# Experimental data reported in patent US20070117743A1, “New antitumoral compounds” (priority 2003, published 2007).
# Where a SMILES comes first, the peptide text is derived from it. Bridges are numbered along the chain shown (N, C = ends). [ ]: non-standard residue; d: D form. The star is where a group is joined. d(aIle) = CC[C@H](C)[C@@H](N)C(=O)O; d(aThr) = C[C@@H](O)[C@@H](N)C(=O)O; Hexanoyl(5-Me) = CC(C)CCCC(=O)*; dCha = N[C@H](CC1CCCCC1)C(=O)O; Orn = NCCC[C@H](N)C(=O)O; Dhb = C/C=C(\N)C(=O)O
# How the values were obtained:
# Type in all cases: cell-based, human
# A-549 = test: SRB colorimetric assay of cell growth and viability, A-549; conditions: 48 hours exposure; for GI50: read-out: GI50 A-549; for CC50: read-out: LC50 A-549
# SK-MEL-28 = test: SRB colorimetric assay of cell growth and viability, SK-MEL-28; conditions: 48 hours exposure; for CC50: read-out: LC50 MEL-28
# HT-29 = test: SRB colorimetric assay of cell growth and viability, HT-29; conditions: 48 hours exposure; for GI50: read-out: GI50 HT-29; for CC50: read-out: LC50 HT-29
# LoVo = test: SRB colorimetric assay of cell growth and viability, LoVo; conditions: 48 hours exposure; for CC50: read-out: LC50 LOVO
# LoVo-Dox = test: SRB colorimetric assay of cell growth and viability, LoVo-Dox; conditions: 48 hours exposure; for CC50: read-out: LC50 LOVO-DOX
# In short: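 48 h continuous exposure, 10 to 10^−8 μg/mL; 5×10^3 cells/well, 18 h attachment; TCA fix, 0.4% SRB, OD 490 nm. Triplicates; GI, TGI, LC derived.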
# DU-145 = test: SRB colorimetric assay of cell growth and viability, DU-145; conditions: 48 hours exposure
# LNCaP = test: SRB colorimetric assay of cell growth and viability, LNCaP; conditions: 48 hours exposure; for GI50: read-out: GI50 LN-caP; for CC50: read-out: LC50 LN-caP
# SK-BR-3 = test: SRB colorimetric assay of cell growth and viability, SK-BR-3; conditions: 48 hours exposure
# IGROV-1 = test: SRB colorimetric assay of cell growth and viability, IGROV-1; conditions: 48 hours exposure
# IGROV-ET = test: SRB colorimetric assay of cell growth and viability, IGROV-ET; conditions: 48 hours exposure; for CC50: read-out: LC50 IGROV-ET
# HeLa = test: SRB colorimetric assay of cell growth and viability, HeLa; conditions: 48 hours exposure; for CC50: read-out: LC50 HELA
# HeLa-APL = test: SRB colorimetric assay of cell growth and viability, HeLa-APL; conditions: 48 hours exposure; for CC50: read-out: LC50 HELA-APL
# K-562 = test: SRB colorimetric assay of cell growth and viability, K-562; conditions: 48 hours exposure; for CC50: read-out: LC50 K-562
# PANC-1 = test: SRB colorimetric assay of cell growth and viability, PANC-1; conditions: 48 hours exposure; for CC50: read-out: LC50 PANC-1
compound,measurement,setting,value
"C/C=C1\NC(=O)[C@H](Cc2ccccc2)NC(=O)[C@@H](C(C)C)NC(=O)[C@@H]([C@@H](C)CC)NC(=O)[C@H](NC(=O)[C@H](NC(=O)[C@H](CCCN)NC(=O)[C@H]2CCCN2C(=O)[C@H](NC(=O)[C@@H](NC(=O)[C@@H](NC(=O)[C@H](NC(=O)CCCC(C)C)C(C)C)[C@@H](C)O)C(C)C)C(C)C)[C@@H](C)CC)COC(=O)[C@H](C(C)C)NC1=O [Compound 3, [D-Ser^6]-KF] ({Hexanoyl(5-Me)}-[dV]TV[dV][dP][Orn][d(aIle)][dS][d(aIle)][dV]F[Dhb]V; ester 8-C)",TGI A-549,A-549,2.46E−06 Molar
same,GI50,A-549,1.36 µM
same,CC50,A-549,4.47 µM
same,GI50,SK-MEL-28,1.57 µM
same,TGI MEL-28,SK-MEL-28,2.66E−06 Molar
same,CC50,SK-MEL-28,4.53 µM
same,TGI HT-29,HT-29,1.22E−06 Molar
same,GI50,HT-29,0.378 µM
same,CC50,HT-29,3.52 µM
same,GI50,LoVo,0.189 µM
same,TGI LOVO,LoVo,3.64E−07 Molar
same,CC50,LoVo,0.758 µM
same,GI50,LoVo-Dox,0.179 µM
same,TGI LOVO-DOX,LoVo-Dox,3.37E−07 Molar
same,CC50,LoVo-Dox,0.637 µM
same,GI50,DU-145,0.833 µM
same,LC50 (concentration causing 50% net cell kill),DU-145,3.44 µM
same,TGI DU-145,DU-145,1.69E−06 Molar
same,TGI LN-caP,LNCaP,1.12E−06 Molar
same,GI50,LNCaP,0.372 µM
same,CC50,LNCaP,2.94 µM
same,GI50,SK-BR-3,0.406 µM
same,LC50,SK-BR-3,2.45 µM
same,TGI SK-BR-3,SK-BR-3,6.23E−07 Molar
same,GI50,IGROV-1,0.455 µM
same,LC50 (concentration causing 50% net cell killing),IGROV-1,3.16 µM
same,TGI IGROV,IGROV-1,1.27E−06 Molar
same,GI50,IGROV-ET,0.264 µM
same,TGI IGROV-ET,IGROV-ET,6.38E−07 Molar
same,CC50,IGROV-ET,2.11 µM
same,GI50,HeLa,1.35 µM
same,TGI HELA,HeLa,2.64E−06 Molar
same,CC50,HeLa,5.21 µM
same,GI50,HeLa-APL,1.37 µM
same,TGI HELA-APL,HeLa-APL,2.28E−06 Molar
same,CC50,HeLa-APL,3.78 µM
same,GI50,K-562,5.08 µM
same,TGI K-562,K-562,6.83E−06 Molar
same,CC50,K-562,≥ 6.83 µM
same,GI50,PANC-1,3.08 µM
same,TGI PANC-1,PANC-1,6.83E−06 Molar
same,CC50,PANC-1,≥ 6.83 µM
[(c/t)-4-Me-cHexa^14]-KF [Compound 14],TGI A-549,A-549,2.15E−06 Molar
same,GI50,A-549,0.933 µM
same,CC50,A-549,4.95 µM
same,GI50,SK-MEL-28,0.886 µM
same,TGI MEL-28,SK-MEL-28,1.89E−06 Molar
same,CC50,SK-MEL-28,4.01 µM
same,TGI HT-29,HT-29,4.22E−07 Molar
same,GI50,HT-29,0.189 µM
same,CC50,HT-29,1.83 µM
same,GI50,LoVo,0.0993 µM
same,TGI LOVO,LoVo,2.34E−07 Molar
same,CC50,LoVo,0.55 µM
same,GI50,LoVo-Dox,0.144 µM
same,TGI LOVO-DOX,LoVo-Dox,2.88E−07 Molar
same,CC50,LoVo-Dox,0.576 µM
same,GI50,DU-145,0.612 µM
same,LC50 (concentration causing 50% net cell kill),DU-145,3.36 µM
same,TGI DU-145,DU-145,1.48E−06 Molar
same,TGI LN-caP,LNCaP,2.87E−06 Molar
same,GI50,LNCaP,1.34 µM
same,CC50,LNCaP,6.11 µM
same,GI50,SK-BR-3,0.152 µM
same,LC50,SK-BR-3,0.657 µM
same,TGI SK-BR-3,SK-BR-3,3.17E−07 Molar
same,GI50,IGROV-1,0.382 µM
same,LC50 (concentration causing 50% net cell killing),IGROV-1,3.47 µM
same,TGI IGROV,IGROV-1,1.22E−06 Molar
same,GI50,IGROV-ET,0.846 µM
same,TGI IGROV-ET,IGROV-ET,1.94E−06 Molar
same,CC50,IGROV-ET,4.47 µM
same,GI50,HeLa,0.779 µM
same,TGI HELA,HeLa,1.84E−06 Molar
same,CC50,HeLa,4.37 µM
same,GI50,HeLa-APL,0.611 µM
same,TGI HELA-APL,HeLa-APL,1.72E−06 Molar
same,CC50,HeLa-APL,4.56 µM
same,GI50,K-562,2.02 µM
same,TGI K-562,K-562,3.58E−06 Molar
same,CC50,K-562,6.32 µM
same,GI50,PANC-1,2.01 µM
same,TGI PANC-1,PANC-1,6.71E−06 Molar
same,CC50,PANC-1,6.71 µM
"C/C=C1\NC(=O)[C@H](Cc2ccccc2)NC(=O)[C@@H](CC2CCCCC2)NC(=O)[C@@H](CC2CCCCC2)NC(=O)[C@H](NC(=O)[C@@H](CC2CCCCC2)NC(=O)[C@H](CCCN)NC(=O)[C@H]2CCCN2C(=O)[C@H](NC(=O)[C@@H](NC(=O)[C@@H](NC(=O)[C@H](NC(=O)CCCC(C)C)C(C)C)[C@@H](C)O)C(C)C)C(C)C)[C@@H](C)OC(=O)[C@H](C(C)C)NC1=O [Compound 11, [D-Cha^4, D-Cha^5, D-Cha^7]-KF] ({Hexanoyl(5-Me)}-[dV]TV[dV][dP][Orn][dCha][d(aThr)][dCha][dCha]F[Dhb]V; ester 8-C)",TGI A-549,A-549,2.60E−07 Molar
same,GI50,A-549,0.132 µM
same,CC50,A-549,0.511 µM
same,GI50,SK-MEL-28,0.455 µM
same,TGI MEL-28,SK-MEL-28,1.28E−06 Molar
same,CC50,SK-MEL-28,3.03 µM
same,TGI HT-29,HT-29,1.91E−07 Molar
same,GI50,HT-29,0.0974 µM
same,CC50,HT-29,0.377 µM
same,GI50,LoVo,0.0974 µM
same,TGI LOVO,LoVo,1.99E−07 Molar
same,CC50,LoVo,0.406 µM
same,GI50,LoVo-Dox,0.0819 µM
same,TGI LOVO-DOX,LoVo-Dox,1.64E−07 Molar
same,CC50,LoVo-Dox,0.326 µM
same,GI50,DU-145,0.22 µM
same,LC50 (concentration causing 50% net cell kill),DU-145,2.64 µM
same,TGI DU-145,DU-145,8.56E−07 Molar
same,TGI LN-caP,LNCaP,1.40E−06 Molar
same,GI50,LNCaP,0.645 µM
same,CC50,LNCaP,3.01 µM
same,GI50,SK-BR-3,0.106 µM
same,LC50,SK-BR-3,0.599 µM
same,TGI SK-BR-3,SK-BR-3,2.52E−07 Molar
same,GI50,IGROV-1,0.19 µM
same,LC50 (concentration causing 50% net cell killing),IGROV-1,2.99 µM
same,TGI IGROV,IGROV-1,5.67E−07 Molar
same,GI50,IGROV-ET,0.133 µM
same,TGI IGROV-ET,IGROV-ET,3.03E−07 Molar
same,CC50,IGROV-ET,1.29 µM
same,GI50,HeLa,0.223 µM
same,TGI HELA,HeLa,8.93E−07 Molar
same,CC50,HeLa,2.55 µM
same,GI50,HeLa-APL,0.211 µM
same,TGI HELA-APL,HeLa-APL,8.31E−07 Molar
same,CC50,HeLa-APL,2.32 µM
same,GI50,K-562,1.58 µM
same,TGI K-562,K-562,2.56E−06 Molar
same,CC50,K-562,4.14 µM
same,GI50,PANC-1,1.43 µM
same,TGI PANC-1,PANC-1,2.74E−06 Molar
same,CC50,PANC-1,5.25 µM
